One may read the logP as a log measure of how a compound divides between an organic and an aqueous phase.

A short description of the data set: distribution coefficient (log P), measured between n-octanol and water. Conditions: experimental value, read-out: logP Observed. It counts as physicochemical. As to the method:
On the other hand, the measured value of the distribution coefficient is calculated by the following equation using a concentration of a medicinal ingredient dissolved in each of two phases of water and n-octanol, which is obtained by a conventional quantitative method such as absorption spectrophotometry, gas chromatography or liquid chromatography:
Log P=Log [(concentration of the medicinal ingredient in n-octanol phase)/(concentration of the medicinal ingredient in water phase)

As for `O=C1O[C@H]([C@@H](O)CO)C(O)=C1O` [ascorbic acid], the logP was -2.15.
For `CCOc1ccccc1C(N)=O` [ethenzamide] the value was 1.39.

Values taken from US20160213619A1, “INTRAORALLY DISINTEGRABLE TABLET COMPRISING DISINTEGRABLE GRANULAR COMPOSITION” (DAICEL CORPORATION, priority 2013, published 2016).
